In patent US20250002854A1, “METHODS OF GENERATING POPULATIONS OF TUMOUR-INFILTRATING T CELLS” (LYTIX BIOPHARMA AS, priority 2016, published 2025):
Square brackets hold non-standard residues; d marks the D form. Ends that are not written are not given here. Dip = N[C@H](C(=O)O)C(c1ccccc1)c1ccccc1

Assays:
B16F1 cells = assay: Release of HMGB1 (Western blot); type: cell-based, murine; settings: 108 μM
Experimental: B16F1 cells were seeded at a density of 2×10^5 cells/well in 6-well plates in a complete medium, and allowed to adhere overnight. Cells were treated with 108 μM of LTX-401 (4×IC50^4h), and incubated at 37° C. (>95% humidity and 5% CO2) for different time points (10, 30, 60, 90 and 120 minutes). Serum-free RPMI 1640 was used as a negative control, and supernatants (S) were collected and centrifuged at 1,400 g for 5 min before being up-concentrated using Amicon Ultra-0.5 Centrifugal Filter units with Ultracel-50 membrane (Milipore, Norway). Cell lysates (L) were harvested after washing with 2 mL of serum-free RPMI-1640 and subjected to a lysis buffer (mastermix) containing 2×NuPAGE LDS Sample buffer (Invitrogen, Norway), a 1×NuPAGE Sample Reducing Agent (Invitrogen, Norway) and 50% sterile H20. Both supernatants and lysates were boiled at 70° C. for 10 min and resolved on NuPAGE Novex 4-12% Bis-Tris Gels (Millipore, Norway) before being electrotransferred to a polyvindiline difluoride (PVDF) membrane (Millipore, Norway). […]

[1] = system: Human osteosarcoma U2OS cells; assay: Transmission electron microscopy of U2OS cells after LTX-315; type: cell-based
Experimental: Cytoplasmic membrane disintegration was carried out as described in FORVEILLE S. et al., Cell Cycle 2015, 14: 3506-12.
Human osteosarcoma U2OS cells were cultured in Glutamax-containing DMEM medium supplemented with 10% fetal calf serum (FCS), and […] HEPES buffer. Cells were grown at 37° C. in a humidified incubator under a 5% CO2 atmosphere.
For ultrastructural studies, human osteosarcoma U2OS cells were fixed in 1.6% glutaraldehyde (v/v in 0.1 M phosphate buffer) for 1 h, collected by scraping, centrifuged and the pellet was post-fixed 1% osmium tetroxide (w/v in 0.1 M phosphate buffer). Following dehydration through a graded ethanol series, cells were embedded in Epon™ 812 and ultrathin sections were stained with standard uranyl acetate and lead citrate. Images were taken using a Tecnai 12 electron microscope (FEI, Eindhoven, the Netherlands).

Murine B16 melanoma = assay: immunoSEQ TCR repertoire characterisation after intratumoural LTX-315; type: in vivo, mice
Experimental: This study was carried out using an “immunoSEQ™” T cell receptor (TCR) repertoire characterisation platform by Adaptive Biotechnologies™. The platform combines novel multiplex PCR1 with highly optimized primer sets and deep sequencing techniques that exclusively target TCR genes. The immunoSEQ platform enables researchers to analyse the adaptive immune system with exceptional depth and specificity.
Murine B16 melanoma cells were harvested, washed and injected intradermally in ten mice. 8 days after tumour injection, peptide treatment was initiated using single intratumoural injections of LTX-315 (1.0 mg LTX-315/50 μl saline) once or twice in five mice. Vehicle control of saline only (0.9% NaCl in sterile H2O) was administered to the other five mice. Animals were then euthanized on day 15.
Tumour tissue (10 mg) and whole blood (150-200 μl) was taken from each mouse for TCR repertoire characterisation analysis. Blood samples provide information regarding the immune repertoire in the periphery, whilst the tumour samples provide a focused view of the repertoire.
Sequence analysis was carried out by Adaptive Biotechnologies™ at a survey-level resolution with respect to the tissue samples and at a deep-level resolution with respect to the blood samples.
Clonality quantitates the extent of mono-or oligoclonal expansion by measuring the shape of the clone frequency distribution. Values range from 0 to 1, where values approaching 1 indicate a nearly monoclonal population. FIG. 15 provides example distribution curves of populations with a clonality of 0.05 (A) and of 0.32 (B).

MCA205 sarcomas = assay: T-cell depletion, tumour growth of MCA205 sarcomas; type: in vivo, C57BL/6 mice; settings: three intratumoural daily injections of 300 μg
Experimental: Mice were subcutaneously injected into the right flank with 1×10^6 MCA205 cells. Tumour cell lines were inoculated into C57BL/6 mice. Tumour surfaces (longest dimension×perpendicular dimension) were routinely monitored by caliper. When tumours reached a size of 20-25 mm^2 (day 0), mice were administered intratumourally with three consecutive daily injections of 300 μg LTX-315. In T-cell depletion experiments (FIG. 24), anti-CD4 and anti-CD8 monoclonal antibodies (mAbs) (GK1.5 and 53-6.72, respectively; 200 μg per mouse) or their isotype controls (LTF-2 and 2A3, respectively) were injected intraperitoneally 3 and 4 days before the first LTX-315 injection and continued every other 7 days. All mAbs for in vivo use were obtained from BioXcell (West Lebanon, NH, USA), using the recommended isotype control mAbs.

Molecule	time at which HMGB1 translocation was absolute (B16F1 cells)	time at which release of HMGB1 occurs (B16F1 cells)	cell morphology after administration (TEM) [1]	TCR Template Molecules (Murine B16 melanoma; Blood)	TCRs (T cell estimate) per nucleated cell (%) (Murine B16 melanoma; Blood)	Unique TCRs (Murine B16 melanoma; Blood)	TCR Template Molecules (Murine B16 melanoma; Tissue (tumour))	antitumor effects in presence of antibodies depleting CD4+ and CD8+ T cells (MCA205 sarcomas)
Cl.Cl.NCCNC(=O)C(CN)(CCCc1ccccc1)CCCc1ccccc1 [LTX-401]	90 min	30 min						
K-K-W-W-K-K-W-Dip-K-NH2 (KKWWKKW[Dip]K-NH2) [LTX-315]			necrotic morphology with disintegration of cytoplasmic membranes	135,283	17.4%	116,120	12,331	completely abrogated the antitumor effects
